Experimental data from the supplement of paper PMC10307832.

What was measured:
Assay in all cases: relative viability (nuclei count vs DMSO), 5 days (fraction); higher = more cells survive
MK-8033 + Linsitinib = compound: Cn1cc(-c2cnc3ccc4ccc(CS(=O)(=O)NCc5ccccn5)cc4c(=O)c3c2)cn1 [MK-8033] + C[C@]1(O)C[C@@H](c2nc(-c3ccc4ccc(-c5ccccc5)nc4c3)c3c(N)nccn32)C1 [Linsitinib] (partner 1 µM)
In short: (§1)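 Relative viability was taken as the ratio of nuclei in treated wells to nuclei in vehicle wells. Lung cancer cell lines in 1536-well plates received compounds by pin tool one day after seeding, either one drug alone or a fixed anchor-drug dose plus five library-drug doses (not always all listed) in √10 steps. Nuclei were counted on 4× images after 5 days of treatment, and values are medians of duplicate plates.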

MK-8033 + Decitabine = compound: Cn1cc(-c2cnc3ccc4ccc(CS(=O)(=O)NCc5ccccn5)cc4c(=O)c3c2)cn1 [MK-8033] + Nc1ncn([C@H]2C[C@H](O)[C@@H](CO)O2)c(=O)n1 [Decitabine] (partner 2 µM)
In short: as §1

RU-SKI 43 + Tozasertib = compound: CC[C@@H](C)CNCC(=O)N1CCC2=C([C@@H]1COC3=CC=CC(=C3)C)C=CS2 [RU-SKI 43] + Cc1cc(Nc2cc(N3CCN(C)CC3)nc(Sc3ccc(NC(=O)C4CC4)cc3)n2)n[nH]1 [Tozasertib] (partner 0.1 µM)
In short: as §1

Irinotecan + OSI-027 = compound: CCc1c2c(nc3ccc(OC(=O)N4CCC(N5CCCCC5)CC4)cc13)-c1cc3c(c(=O)n1C2)COC(=O)[C@]3(O)CC [Irinotecan] + COc1cccc2cc(-c3nc([C@H]4CC[C@H](C(=O)O)CC4)n4ncnc(N)c34)[nH]c12 [OSI-027] (partner 0.5 µM)
In short: as §1

NCI-H3122
relative viability (MK-8033 + Linsitinib; first compound 0.02 µM): 1.01 | relative viability (MK-8033 + Linsitinib; first compound 0.06325 µM): 1.04 | relative viability (MK-8033 + Linsitinib; first compound 0.2 µM): 0.993 | relative viability (MK-8033 + Linsitinib; first compound 0.6325 µM): 1.04 | relative viability (MK-8033 + Linsitinib; first compound 2 µM): 1.02 | relative viability (MK-8033 + Decitabine; first compound 0.02 µM): 0.441 | relative viability (MK-8033 + Decitabine; first compound 0.06325 µM): 0.478 | relative viability (MK-8033 + Decitabine; first compound 0.2 µM): 0.406 | relative viability (MK-8033 + Decitabine; first compound 0.6325 µM): 0.508 | relative viability (MK-8033 + Decitabine; first compound 2 µM): 0.469 | relative viability (RU-SKI 43 + Tozasertib; first compound 0.1 µM): 0.372 | relative viability (RU-SKI 43 + Tozasertib; first compound 0.3162 µM): 0.416 | relative viability (RU-SKI 43 + Tozasertib; first compound 1 µM): 0.495 | relative viability (RU-SKI 43 + Tozasertib; first compound 3.162 µM): 0.392 | relative viability (RU-SKI 43 + Tozasertib; first compound 10 µM): 0.369 | relative viability (Irinotecan + OSI-027; first compound 0.6325 µM): 1.04 | relative viability (Irinotecan + OSI-027; first compound 2 µM): 0.649 | relative viability (Irinotecan + OSI-027; first compound 6.325 µM): 0.22 | relative viability (Irinotecan + OSI-027; first compound 20 µM): 0.0566

SW 1573
relative viability (MK-8033 + Linsitinib; first compound 0.02 µM): 0.799 | relative viability (MK-8033 + Linsitinib; first compound 0.06325 µM): 0.721 | relative viability (MK-8033 + Linsitinib; first compound 0.2 µM): 0.764 | relative viability (MK-8033 + Linsitinib; first compound 0.6325 µM): 0.749 | relative viability (MK-8033 + Linsitinib; first compound 2 µM): 0.684 | relative viability (MK-8033 + Decitabine; first compound 0.02 µM): 0.528 | relative viability (MK-8033 + Decitabine; first compound 0.06325 µM): 0.467 | relative viability (MK-8033 + Decitabine; first compound 0.2 µM): 0.524 | relative viability (MK-8033 + Decitabine; first compound 0.6325 µM): 0.502 | relative viability (MK-8033 + Decitabine; first compound 2 µM): 0.474 | relative viability (RU-SKI 43 + Tozasertib; first compound 0.1 µM): 0.209 | relative viability (RU-SKI 43 + Tozasertib; first compound 0.3162 µM): 0.22 | relative viability (RU-SKI 43 + Tozasertib; first compound 1 µM): 0.204 | relative viability (RU-SKI 43 + Tozasertib; first compound 3.162 µM): 0.123 | relative viability (RU-SKI 43 + Tozasertib; first compound 10 µM): 0.196 | relative viability (Irinotecan + OSI-027; first compound 0.6325 µM): 0.213 | relative viability (Irinotecan + OSI-027; first compound 2 µM): 0.566 | relative viability (Irinotecan + OSI-027; first compound 6.325 µM): 0.231 | relative viability (Irinotecan + OSI-027; first compound 20 µM): 0.122

NCI-H2342
relative viability (MK-8033 + Decitabine; first compound 0.02 µM): 0.729 | relative viability (MK-8033 + Decitabine; first compound 0.06325 µM): 0.787 | relative viability (MK-8033 + Decitabine; first compound 0.2 µM): 0.738 | relative viability (MK-8033 + Decitabine; first compound 0.6325 µM): 0.705 | relative viability (MK-8033 + Decitabine; first compound 2 µM): 0.782 | relative viability (RU-SKI 43 + Tozasertib; first compound 0.1 µM): 0.489 | relative viability (RU-SKI 43 + Tozasertib; first compound 0.3162 µM): 0.528 | relative viability (RU-SKI 43 + Tozasertib; first compound 1 µM): 0.502 | relative viability (RU-SKI 43 + Tozasertib; first compound 3.162 µM): 0.441 | relative viability (RU-SKI 43 + Tozasertib; first compound 10 µM): 0.516 | relative viability (Irinotecan + OSI-027; first compound 0.6325 µM): 0.58 | relative viability (Irinotecan + OSI-027; first compound 2 µM): 0.551 | relative viability (Irinotecan + OSI-027; first compound 6.325 µM): 0.607 | relative viability (Irinotecan + OSI-027; first compound 20 µM): 0.439

NCI-H1792
relative viability (MK-8033 + Linsitinib; first compound 0.02 µM): 0.468 | relative viability (MK-8033 + Linsitinib; first compound 0.06325 µM): 0.528 | relative viability (MK-8033 + Linsitinib; first compound 0.2 µM): 0.527 | relative viability (MK-8033 + Linsitinib; first compound 0.6325 µM): 0.454 | relative viability (MK-8033 + Linsitinib; first compound 2 µM): 0.523 | relative viability (MK-8033 + Decitabine; first compound 0.02 µM): 0.527 | relative viability (MK-8033 + Decitabine; first compound 0.06325 µM): 0.508 | relative viability (MK-8033 + Decitabine; first compound 0.2 µM): 0.47 | relative viability (MK-8033 + Decitabine; first compound 0.6325 µM): 0.522 | relative viability (MK-8033 + Decitabine; first compound 2 µM): 0.537 | relative viability (Irinotecan + OSI-027; first compound 0.6325 µM): 0.7 | relative viability (Irinotecan + OSI-027; first compound 2 µM): 0.617 | relative viability (Irinotecan + OSI-027; first compound 6.325 µM): 0.456 | relative viability (Irinotecan + OSI-027; first compound 20 µM): 0.231

IA-LM
relative viability (MK-8033 + Linsitinib; first compound 0.02 µM): 0.522 | relative viability (MK-8033 + Linsitinib; first compound 0.06325 µM): 0.465 | relative viability (MK-8033 + Linsitinib; first compound 0.2 µM): 0.654 | relative viability (MK-8033 + Linsitinib; first compound 0.6325 µM): 0.61 | relative viability (MK-8033 + Linsitinib; first compound 2 µM): 0.587

NCI-H1650
relative viability (MK-8033 + Decitabine; first compound 0.02 µM): 0.445 | relative viability (MK-8033 + Decitabine; first compound 0.06325 µM): 0.429 | relative viability (MK-8033 + Decitabine; first compound 0.2 µM): 0.422 | relative viability (MK-8033 + Decitabine; first compound 0.6325 µM): 0.452 | relative viability (MK-8033 + Decitabine; first compound 2 µM): 0.403 | relative viability (RU-SKI 43 + Tozasertib; first compound 0.1 µM): 0.381 | relative viability (RU-SKI 43 + Tozasertib; first compound 0.3162 µM): 0.374 | relative viability (RU-SKI 43 + Tozasertib; first compound 1 µM): 0.38 | relative viability (RU-SKI 43 + Tozasertib; first compound 3.162 µM): 0.427 | relative viability (RU-SKI 43 + Tozasertib; first compound 10 µM): 0.303 | relative viability (Irinotecan + OSI-027; first compound 2 µM): 0.902 | relative viability (Irinotecan + OSI-027; first compound 6.325 µM): 0.575 | relative viability (Irinotecan + OSI-027; first compound 20 µM): 0.196

NCI-H2228
relative viability (MK-8033 + Linsitinib; first compound 0.02 µM): 0.577 | relative viability (MK-8033 + Linsitinib; first compound 0.06325 µM): 0.629 | relative viability (MK-8033 + Linsitinib; first compound 0.2 µM): 0.537 | relative viability (MK-8033 + Linsitinib; first compound 0.6325 µM): 0.761 | relative viability (MK-8033 + Linsitinib; first compound 2 µM): 0.625 | relative viability (RU-SKI 43 + Tozasertib; first compound 0.1 µM): 0.256 | relative viability (RU-SKI 43 + Tozasertib; first compound 0.3162 µM): 0.264 | relative viability (RU-SKI 43 + Tozasertib; first compound 1 µM): 0.184 | relative viability (RU-SKI 43 + Tozasertib; first compound 3.162 µM): 0.249 | relative viability (RU-SKI 43 + Tozasertib; first compound 10 µM): 0.255 | relative viability (Irinotecan + OSI-027; first compound 0.6325 µM): 0.341 | relative viability (Irinotecan + OSI-027; first compound 2 µM): 0.472 | relative viability (Irinotecan + OSI-027; first compound 6.325 µM): 0.288 | relative viability (Irinotecan + OSI-027; first compound 20 µM): 0.342

SW 900
relative viability (MK-8033 + Decitabine; first compound 0.02 µM): 0.483 | relative viability (MK-8033 + Decitabine; first compound 0.06325 µM): 0.328 | relative viability (MK-8033 + Decitabine; first compound 0.2 µM): 0.496 | relative viability (MK-8033 + Decitabine; first compound 0.6325 µM): 0.549 | relative viability (MK-8033 + Decitabine; first compound 2 µM): 0.41 | relative viability (RU-SKI 43 + Tozasertib; first compound 0.1 µM): 0.671 | relative viability (RU-SKI 43 + Tozasertib; first compound 0.3162 µM): 0.553 | relative viability (RU-SKI 43 + Tozasertib; first compound 1 µM): 0.54 | relative viability (RU-SKI 43 + Tozasertib; first compound 3.162 µM): 0.45 | relative viability (RU-SKI 43 + Tozasertib; first compound 10 µM): 0.512 | relative viability (Irinotecan + OSI-027; first compound 0.6325 µM): 0.298 | relative viability (Irinotecan + OSI-027; first compound 2 µM): 0.632 | relative viability (Irinotecan + OSI-027; first compound 6.325 µM): 0.4 | relative viability (Irinotecan + OSI-027; first compound 20 µM): 0.424

NCI-H1703
relative viability (MK-8033 + Linsitinib; first compound 0.02 µM): 0.552 | relative viability (MK-8033 + Linsitinib; first compound 0.06325 µM): 0.762 | relative viability (MK-8033 + Linsitinib; first compound 0.2 µM): 0.556 | relative viability (MK-8033 + Linsitinib; first compound 0.6325 µM): 0.89 | relative viability (MK-8033 + Linsitinib; first compound 2 µM): 0.446

NCI-H1299
relative viability (MK-8033 + Linsitinib; first compound 0.02 µM): 0.997 | relative viability (MK-8033 + Linsitinib; first compound 0.06325 µM): 0.997 | relative viability (MK-8033 + Linsitinib; first compound 0.2 µM): 0.958 | relative viability (MK-8033 + Linsitinib; first compound 0.6325 µM): 1.05 | relative viability (MK-8033 + Linsitinib; first compound 2 µM): 0.988

NCI-H2170
relative viability (MK-8033 + Decitabine; first compound 0.02 µM): 0.461 | relative viability (MK-8033 + Decitabine; first compound 0.06325 µM): 0.405 | relative viability (MK-8033 + Decitabine; first compound 0.2 µM): 0.458 | relative viability (MK-8033 + Decitabine; first compound 0.6325 µM): 0.479 | relative viability (MK-8033 + Decitabine; first compound 2 µM): 0.468 | relative viability (RU-SKI 43 + Tozasertib; first compound 0.1 µM): 0.701 | relative viability (RU-SKI 43 + Tozasertib; first compound 0.3162 µM): 0.953 | relative viability (RU-SKI 43 + Tozasertib; first compound 1 µM): 0.751 | relative viability (RU-SKI 43 + Tozasertib; first compound 3.162 µM): 0.722 | relative viability (RU-SKI 43 + Tozasertib; first compound 10 µM): 0.701 | relative viability (Irinotecan + OSI-027; first compound 0.6325 µM): 0.546 | relative viability (Irinotecan + OSI-027; first compound 2 µM): 0.767 | relative viability (Irinotecan + OSI-027; first compound 6.325 µM): 0.255 | relative viability (Irinotecan + OSI-027; first compound 20 µM): 0.174

CAL-12T
relative viability (MK-8033 + Linsitinib; first compound 0.02 µM): 0.738 | relative viability (MK-8033 + Linsitinib; first compound 0.06325 µM): 0.861 | relative viability (MK-8033 + Linsitinib; first compound 0.2 µM): 0.72 | relative viability (MK-8033 + Linsitinib; first compound 0.6325 µM): 0.903 | relative viability (MK-8033 + Linsitinib; first compound 2 µM): 0.771 | relative viability (RU-SKI 43 + Tozasertib; first compound 0.1 µM): 0.296 | relative viability (RU-SKI 43 + Tozasertib; first compound 0.3162 µM): 0.403 | relative viability (RU-SKI 43 + Tozasertib; first compound 1 µM): 0.303 | relative viability (RU-SKI 43 + Tozasertib; first compound 3.162 µM): 0.26 | relative viability (RU-SKI 43 + Tozasertib; first compound 10 µM): 0.243 | relative viability (Irinotecan + OSI-027; first compound 2 µM): 0.798 | relative viability (Irinotecan + OSI-027; first compound 6.325 µM): 0.357 | relative viability (Irinotecan + OSI-027; first compound 20 µM): 0.101
